According to patent US4738986A, “N-(3-phenoxycinnamyl)acetohydroxamic acid” (Burroughs Wellcome Co., priority 1985, dated 1988):

What was measured:
Cyclooxygenase (CO) = target: T1, Cyclooxygenase (CO) (Homo sapiens, UniProt P23219); assay: In vitro inhibition of cyclooxygenase (CO): thromboxane release from arachidonic acid in leukocyte homogenate, radioimmunoassay; type: biochemical; conditions: volunteers' blood, 5 μM arachidonic acid, 37°, 5 minutes, thromboxane B4 RIA
T1 construct: The leukocytes were homogenised and 5 μM arachidonic acid added; endogenous in cells; host or cells: leukocytes from blood of normal aspirin-free volunteers, separated from red cells and platelets by centrifugation, homogenised
Protocol: (§1) In vitro inhibition of 5-lipoxygenase (LO) and Cyclooxygenase (CO)
(§2) Blood from normal aspirin-free volunteers was centrifuged to separate leukocytes from red cells and platelets. The leukocytes were homogenised and 5 μM arachidonic acid added, followed by incubation at 37° for 5 minutes. The reaction was stopped by boiling. Radioimmunoassay was conducted for leukotriene B4 (an LO product) and […] (a CO product). Results were calculated as IC50 μM activity against each enzyme and as listed below.

5-lipoxygenase (LO) = target: T2, 5-lipoxygenase (LO) (Homo sapiens, UniProt P09917); assay: In vitro inhibition of 5-lipoxygenase (LO): leukotriene B4 from arachidonic acid in leukocyte homogenate, radioimmunoassay; type: biochemical; conditions: volunteers' blood, 5 μM arachidonic acid, 37°, 5 minutes, leukotriene B4 RIA
T2 construct: The leukocytes were homogenised and 5 μM arachidonic acid added; endogenous in cells; host or cells: leukocytes from blood of normal aspirin-free volunteers, separated from red cells and platelets by centrifugation, homogenised
T2 sequence (P09917 1-674): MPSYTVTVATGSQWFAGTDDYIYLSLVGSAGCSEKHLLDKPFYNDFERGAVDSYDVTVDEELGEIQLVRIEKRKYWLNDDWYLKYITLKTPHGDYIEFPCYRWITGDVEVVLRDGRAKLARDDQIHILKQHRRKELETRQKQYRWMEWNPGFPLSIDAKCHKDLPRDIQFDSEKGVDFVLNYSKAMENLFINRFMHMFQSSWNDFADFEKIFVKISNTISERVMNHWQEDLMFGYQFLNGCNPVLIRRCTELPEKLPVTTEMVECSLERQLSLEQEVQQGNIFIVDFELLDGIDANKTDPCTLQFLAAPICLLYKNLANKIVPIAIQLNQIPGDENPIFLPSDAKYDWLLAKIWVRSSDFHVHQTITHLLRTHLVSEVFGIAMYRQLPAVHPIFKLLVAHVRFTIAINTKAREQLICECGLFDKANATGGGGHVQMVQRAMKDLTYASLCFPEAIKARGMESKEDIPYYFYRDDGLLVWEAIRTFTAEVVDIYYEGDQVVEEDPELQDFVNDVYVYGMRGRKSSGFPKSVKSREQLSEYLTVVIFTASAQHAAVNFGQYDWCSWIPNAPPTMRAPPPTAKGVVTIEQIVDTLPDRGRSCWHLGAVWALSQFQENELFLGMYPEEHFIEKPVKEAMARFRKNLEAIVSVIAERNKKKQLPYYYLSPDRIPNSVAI
Protocol: as §1, §2

T1 sequence (P23219 24-599): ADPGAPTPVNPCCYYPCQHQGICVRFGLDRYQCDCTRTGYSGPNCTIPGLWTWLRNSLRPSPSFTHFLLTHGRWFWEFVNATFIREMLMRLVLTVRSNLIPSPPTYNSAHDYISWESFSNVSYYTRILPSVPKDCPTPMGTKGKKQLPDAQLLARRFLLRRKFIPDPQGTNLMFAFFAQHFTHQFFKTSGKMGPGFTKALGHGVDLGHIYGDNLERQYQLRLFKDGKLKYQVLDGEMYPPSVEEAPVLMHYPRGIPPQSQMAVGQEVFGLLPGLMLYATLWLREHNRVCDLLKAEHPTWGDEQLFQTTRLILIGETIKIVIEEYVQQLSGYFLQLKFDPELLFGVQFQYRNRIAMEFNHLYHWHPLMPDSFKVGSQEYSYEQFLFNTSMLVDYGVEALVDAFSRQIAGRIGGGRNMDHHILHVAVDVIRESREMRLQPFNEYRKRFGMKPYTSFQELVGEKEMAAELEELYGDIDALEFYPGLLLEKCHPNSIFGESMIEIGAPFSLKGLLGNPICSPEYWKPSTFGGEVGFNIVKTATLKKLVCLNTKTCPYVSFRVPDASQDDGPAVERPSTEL

IC50 (Cyclooxygenase (CO)): 3 µM
IC50 (5-lipoxygenase (LO)): < 0.1 µM
Substance: 3-Phenoxy-N-methylcinnamohydroxamic Acid [Example 1]
